This is an account of results in ChEMBL document CHEMBL1201862, “PubChem BioAssay data set” (2004).

Among the test systems are A498; A549; CCRF-CEM; DU-145; HCT-116; HT-29; KM12; MCF7; MOLT-4; NCI-H226; NCI/ADR-RES; PC-3; SK-MEL-5; SR; SW-620; UACC-257; BT-549; RPMI-8226; SF-539; UACC-62.
Common to all, as to assay: DTP human tumour cell line panel, 48 h

Each structure is given as a SMILES string.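 48-hour exposure; five concentrations; linearly interpolated endpoints. GI50 = concentration required for 50% inhibition of growth.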 Activity calls are given as the source filed them. Rule as the data show it: active = GI50 up to about 1.1 µM and inactive = higher. Bounds are passed on as bounds.

The GI50 is the concentration at which growth is held to half of that of the control. As to `CS(=O)(=O)OCC(CCl)(CCl)CCl`, the GI50 in the test with A498, with A549, in the test on CCRF-CEM, with DU-145, in the test on HCT-116 and in the test with HT-29 was > 100 µM (inactive) each time. Besides, the GI50 in the test on KM12, in the test with MCF7, in the test with MOLT-4, in the test on NCI-H226, in the test with NCI/ADR-RES and in the test on PC-3 was > 100 µM (inactive) throughout. Also, the GI50 in the test on SK-MEL-5, in the test on SR, with SW-620 and in the test with UACC-257 was > 100 µM (inactive) in each case.
As for `CN(C)Cc1cc(/C=C/C(=O)c2ccc(Cl)c(Cl)c2)cc(CN(C)C)c1O`, the GI50 in the test on A498 is 16.1 µM (inactive); with A549, 15.9 µM (inactive); in the test on BT-549, 7.74 µM (inactive); in the test with CCRF-CEM, 5.02 µM (inactive); in the test on DU-145 it was 13.9 µM (inactive); in the test on HCT-116, 12.8 µM (inactive). For the same molecule, the GI50 is 10.8 µM (inactive) in the test with HT-29; 13.1 µM (inactive) with KM12; 12.9 µM (inactive) in the test on MCF7; 10.1 µM (inactive) with MOLT-4; 19 µM (inactive) with NCI/ADR-RES; 12.4 µM (inactive) with PC-3. Also, the GI50 was 13.4 µM (inactive) with RPMI-8226; 6.92 µM (inactive) in the test with SF-539; 11.7 µM (inactive) in the test with SK-MEL-5; 12.9 µM (inactive) in the test with SW-620; 12.1 µM (inactive) in the test with UACC-257; 14.3 µM (inactive) in the test with UACC-62.
`Cc1c2ccccc2nc2[nH]c3ccncc3c12`: the GI50 was 42.9 µM (inactive) in the test on A498; 30.7 µM (inactive) in the test on A549; 40.6 µM (inactive) in the test with BT-549; 0.957 µM (active) in the test on CCRF-CEM; 34.5 µM (inactive) in the test on DU-145; 28.2 µM (inactive) in the test with HT-29. For the same molecule, the GI50 in the test with KM12 is 26.6 µM (inactive); in the test with MOLT-4 it was > 100 µM (inactive); in the test with NCI/ADR-RES, 23.9 µM (inactive); with PC-3 it was 38.3 µM (inactive); with RPMI-8226, 21 µM (inactive); in the test with SF-539, 36.8 µM (inactive). Moreover, the GI50 in the test on SK-MEL-5 was 29.4 µM (inactive); with SR, 26.9 µM (inactive); in the test on SW-620 it was 23.9 µM (inactive); with UACC-257, 52.1 µM (inactive); in the test on UACC-62, 25.4 µM (inactive).
Take `CC(C)(C)C(=O)N1CCN(C=O)C1=S`: the GI50 in the test with A498 was 18.7 µM (inactive); in the test on A549, 27.5 µM (inactive); with BT-549, 46.2 µM (inactive); in the test on CCRF-CEM, 29.8 µM (inactive); with DU-145, 33.5 µM (inactive); in the test with HCT-116, > 100 µM (inactive). Besides, the GI50 in the test with HT-29 was > 100 µM (inactive); in the test with KM12, 75.9 µM (inactive); in the test on MCF7, 15.6 µM (inactive); with MOLT-4, 61.5 µM (inactive); with NCI-H226 it was > 100 µM (inactive); with NCI/ADR-RES, > 100 µM (inactive). Further, the GI50 was > 100 µM (inactive) with PC-3; 24.8 µM (inactive) in the test on RPMI-8226; > 100 µM (inactive) in the test on SF-539; 44.9 µM (inactive) with SW-620; 62.7 µM (inactive) with UACC-257; 32.1 µM (inactive) in the test with UACC-62.
In the case of `CCCNC1=Nc2ccccc2N(Cc2ccccc2)CC1`, the GI50 with A498 is 11.4 µM (inactive); in the test on A549, 35.4 µM (inactive); with BT-549 it was 15.5 µM (inactive); with CCRF-CEM it was 21 µM (inactive); in the test with DU-145, 33.9 µM (inactive); in the test on HCT-116, 29.7 µM (inactive). For the same molecule, the GI50 was 19.5 µM (inactive) with HT-29; 22.5 µM (inactive) in the test on KM12; 10.9 µM (inactive) in the test on MOLT-4; 26.6 µM (inactive) in the test with NCI-H226; 16.1 µM (inactive) in the test with NCI/ADR-RES; 19.3 µM (inactive) in the test with PC-3. Also, the GI50 with RPMI-8226 was 12.9 µM (inactive); with SK-MEL-5 it was 15 µM (inactive); in the test with SW-620 it was 23.7 µM (inactive); in the test on UACC-257 it was 14.4 µM (inactive); with UACC-62 it was 13.5 µM (inactive).
In the case of `Cc1cc(C)c(/C=C(\C(=C/c2c(C)cc(C)cc2C)[N+](=O)[O-])[N+](=O)[O-])c(C)c1`, the GI50 in the test on A549 is > 100 µM (inactive); in the test on BT-549, > 100 µM (inactive); with CCRF-CEM, 41.6 µM (inactive); with DU-145, > 100 µM (inactive); with HCT-116, > 100 µM (inactive); with HT-29 it was > 100 µM (inactive). The GI50 in the test on KM12 is > 100 µM (inactive); with MCF7, 58.9 µM (inactive); in the test with MOLT-4, 32.7 µM (inactive); in the test with PC-3 it was > 100 µM (inactive); in the test with RPMI-8226, 1.31 µM (inactive); in the test with SF-539 it was > 100 µM (inactive). Further, the GI50 in the test on SK-MEL-5 was 86.5 µM (inactive); in the test on SR, 30.4 µM (inactive); in the test on SW-620 it was > 100 µM (inactive); in the test with UACC-257 it was > 100 µM (inactive); in the test on UACC-62, > 100 µM (inactive).
For the molecule `CCOC(=O)CCC(NC(=O)OCc1ccccc1)C(=O)NC(CCC(=O)OCC)C(=O)NC(CCC(=O)OCC)C(=O)NC(CCC(=O)OCC)C(=O)NC(CCC(=O)OCC)C(=O)NC(CCC(=O)OCC)C(=O)NC(CCC(=O)OCC)C(=O)OCC` (configuration not stated), the GI50 in the test with A498 was 84.9 µM (inactive); in the test with A549 it was > 100 µM (inactive); in the test on BT-549, > 100 µM (inactive); in the test on CCRF-CEM, 72.9 µM (inactive); with DU-145, > 100 µM (inactive); in the test on HCT-116 it was > 100 µM (inactive). In addition, the GI50 in the test with HT-29, in the test with MCF7, in the test with MOLT-4, in the test with NCI-H226, in the test with PC-3 and in the test on RPMI-8226 was > 100 µM (inactive) each time. Also, the GI50 was > 100 µM (inactive) in the test with SK-MEL-5; 70.8 µM (inactive) in the test on SR; > 100 µM (inactive) in the test on SW-620; > 100 µM (inactive) with UACC-257; > 100 µM (inactive) with UACC-62.
Turning to `CNC(C)C(O)c1ccc2oc3cc(=O)c4ccccc4c-3nc2c1` (configuration not stated), the GI50 was 24 µM (inactive) in the test on A498; 5.13 µM (inactive) in the test with A549; 7.76 µM (inactive) with BT-549; 5.52 µM (inactive) in the test on CCRF-CEM; 5.31 µM (inactive) with DU-145; 5.24 µM (inactive) in the test with HCT-116. The GI50 is 36.3 µM (inactive) with HT-29; 9.84 µM (inactive) in the test with KM12; 18.9 µM (inactive) in the test on MCF7; 19.4 µM (inactive) with MOLT-4; 14.4 µM (inactive) in the test with NCI/ADR-RES; 32.6 µM (inactive) in the test on PC-3. In addition, the GI50 in the test on RPMI-8226 was 18.9 µM (inactive); in the test on SF-539 it was 1.45 µM (inactive); in the test on SK-MEL-5, 2.48 µM (inactive); in the test with SW-620 it was 6.35 µM (inactive); in the test on UACC-257 it was 5.37 µM (inactive); in the test on UACC-62, 3.82 µM (inactive).
Turning to `CN(C)S(=O)(=O)n1cnc(CO)c1`, the GI50 in the test on A498, in the test with A549, in the test with BT-549, with HCT-116, with KM12 and with MCF7 was > 100 µM (inactive) each time. Further, the GI50 with MOLT-4, with NCI-H226, in the test with NCI/ADR-RES, in the test with PC-3, in the test on RPMI-8226 and in the test with SF-539 was > 100 µM (inactive) throughout. For the same molecule, the GI50 in the test with SK-MEL-5, in the test with SW-620 and in the test with UACC-257 was > 100 µM (inactive) each time.
Regarding `O=c1[nH]nc(NNc2ccccc2)c2nnn(C3CCCCC3)c12`, the GI50 in the test on A549, in the test on BT-549, in the test with CCRF-CEM, with DU-145, with HCT-116 and in the test on HT-29 was > 100 µM (inactive) each time. The GI50 with KM12, in the test on MCF7, in the test on MOLT-4, with NCI/ADR-RES, in the test on PC-3 and with RPMI-8226 was > 100 µM (inactive) in each case. In addition, the GI50 in the test on SK-MEL-5, in the test on SR and with UACC-257 was > 100 µM (inactive) each time.
As for `C/C(=C/C(=O)N(C)c1ccccc1Cl)O[Si](C(C)C)(C(C)C)C(C)C`, the GI50 was > 10 µM (inactive) in the test with A498; 36.1 µM (inactive) in the test on A549; 22.5 µM (inactive) with BT-549; 32.1 µM (inactive) with DU-145; 17.8 µM (inactive) in the test on HCT-116; 17.6 µM (inactive) with HT-29. The GI50 in the test on KM12 is 32.4 µM (inactive); in the test on MOLT-4, 40.4 µM (inactive); with NCI-H226 it was 15.8 µM (inactive); in the test with NCI/ADR-RES, 19.9 µM (inactive); in the test with RPMI-8226, 24.8 µM (inactive); in the test on SF-539 it was 21.3 µM (inactive). In addition, the GI50 in the test on SK-MEL-5 is 16.4 µM (inactive); with SW-620, 19.4 µM (inactive); with UACC-257, 24.8 µM (inactive).
Consider `COC(=O)c1cc(CNCCc2c[nH]c3ccccc23)on1`, for which the GI50 with A498, with A549, in the test with CCRF-CEM, in the test on DU-145, in the test with HCT-116 and in the test on HT-29 was > 100 µM (inactive) in each case. Also, the GI50 in the test on KM12, in the test with MCF7, in the test on MOLT-4, in the test with NCI-H226, in the test with NCI/ADR-RES and with PC-3 was > 100 µM (inactive) in each case. Also, the GI50 was > 100 µM (inactive) in the test with RPMI-8226; 74.1 µM (inactive) in the test with SF-539; > 100 µM (inactive) in the test on SK-MEL-5; > 100 µM (inactive) with SR; > 100 µM (inactive) with SW-620; > 100 µM (inactive) in the test with UACC-257. In addition, the GI50 in the test on UACC-62 is > 100 µM (inactive).
